Experimental findings from patent publication US20250092050A1, “1-AMINOBENZO[4,5]IMIDAZO[1,2-A]PYRAZINE-3-FORMAMIDE COMPOUND, AND PREPARATION THEREFOR AND USE THEREOF” (SUN YAT-SEN UNIVERSITY, priority 2022, published 2025) are described below.

In general, inhibition refers to how much of the control response was suppressed.

The assay addresses adenosine A2A receptor (Homo sapiens, UniProt P29274). In words: Binding to the adenosine A2A receptor: displacement of radioligand [3H]-ZM241385 from membrane protein. The following applies: compound 10^-4 M, 1 nM [3H]-ZM241385. The procedure:
The specific process was as follows: A membrane protein solution (60 μg/tube, containing ADA 2 mg/mL) and a radioligand 1 nM [3H]-ZM241385 were added to each tube. Different compounds with the concentration of 10^−4 M were added into the compound tubes respectively, shaken to mix uniformly, incubated at 37° C. for 30 minutes and the reaction was terminated in a water bath. Free and bound ligands were separated by suction filtration under negative pressure using GF/C glass fiber filter paper, washed three times with precooled 50 mM Tris-HCl, about 4 mL each time. Film was removed and placed upside down on the tray (i.e., with the grid side facing up), and baked for 3 minutes until dried. Dried small circular filter membrane was put into the liquid scintillation tube in sequence, and 2 mL of scintillation solution was added. [3H] count was then performed in a Multifunction Liquid Scintillation Counter. Each junction point was provided with triple tubes. and the average value was taken. Finally. data analysis was carried out to calculate the inhibition rate of the compound on the adenosine AzA receptor: […]

Where [1] appears, read: membrane protein 60 μg/tube, 37° C., 30 minutes, average of triple tubes, read-out: Adenosine A2A receptor inhibition rate.
Setting [2] is: read-out: inhibition rate on adenosine A2A receptors (text summary of Table 1).

The structures appear in SMILES notation. Like-named read-outs stand apart in the source and are kept apart here.

adenosine A2A receptor, sequence (P29274 whole entry): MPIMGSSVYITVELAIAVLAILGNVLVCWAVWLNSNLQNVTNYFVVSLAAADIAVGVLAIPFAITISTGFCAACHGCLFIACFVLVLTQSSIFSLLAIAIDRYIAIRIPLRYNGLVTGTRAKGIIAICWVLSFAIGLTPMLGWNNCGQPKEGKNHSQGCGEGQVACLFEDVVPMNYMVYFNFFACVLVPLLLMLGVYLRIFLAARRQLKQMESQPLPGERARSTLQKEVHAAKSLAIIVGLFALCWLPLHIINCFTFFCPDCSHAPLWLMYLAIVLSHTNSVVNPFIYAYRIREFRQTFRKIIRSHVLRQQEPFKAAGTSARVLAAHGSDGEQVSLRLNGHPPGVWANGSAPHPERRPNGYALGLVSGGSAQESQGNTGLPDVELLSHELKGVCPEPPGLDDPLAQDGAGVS

Take `CC(NC(=O)c1cn2c(nc3ccccc32)c(N)n1)c1cccc2cccnc12` (stereo not drawn) [Compound 14v]: the inhibition at 100 µM under setting [1] came to 61.6 ± 3.91%.
`Nc1nc(C(=O)NCCO)cn2c1nc1ccccc12` [Compound 14f]: the inhibition at 100 µM under setting [1] is 65.6 ± 4.23%.
For the molecule `CC(C)(NC(=O)c1cn2c(nc3ccccc32)c(N)n1)c1ccccn1` [Compound 14x], the inhibition at 100 µM is 75.3 ± 4.07% under setting [1] and greater than 70% under setting [2].
For the molecule `CCCCCNC(=O)c1cn2c(nc3ccccc32)c(N)n1` [Compound 14b], under setting [1], the inhibition at 100 µM amounted to 71 ± 4.02%.
Regarding `CC(NC(=O)c1cn2c(nc3ccccc32)c(N)n1)c1cccc2cccnc12` (stereo not drawn) [Compound 14w], the “Adenosine A2A receptor inhibition rate” value (membrane protein 60 μg/tube, 37° C., 30 minutes, average of triple tubes) is given as 78.27 ± 2.31%. In addition, the inhibition at 100 µM under setting [2] was greater than 70%.
In the case of `CC(NC(=O)c1cn2c(nc3ccccc32)c(N)n1)c1ccccn1` (stereo not drawn) [Compound 14u], the inhibition at 100 µM reads like this: under setting [1], 86.5 ± 1.02%; under setting [2], greater than 80%.
